Data published in patent EP0726261A1, “Herbidical 1,2,4 thiadiazoles” (American Cyanamid Company, priority 1995, dated 1996).

Tests used:
Assay type in all cases: in vivo
Alopecurus myosuroides [1] = experiment: Preemergence herbicidal activity (Example 67); set-up: herbicide rating, ALOMY: scale not given here; details: pre; 800 g/ha; rated about 1-3 weeks after treatment
Procedure, shortened: (§1)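 At a rate of 800g/ha, an aqueous-diluted acetone solution of compound with 0.5% nonionic alkylphenol/ethylene oxide surfactant is applied to the soil of the cups. Greenhouse-held cups are scored on a rating system at about 1-3 weeks.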

Abutilon theophrasti [2] = experiment: Preemergence herbicidal activity (Example 67); details: pre; 800 g/ha; rated about 1-3 weeks after treatment
Procedure, shortened: as §1

Veronica persica [3] = experiment: Preemergence herbicidal activity (Example 67); details: pre; 800 g/ha; rated about 1-3 weeks after treatment
Procedure, shortened: as §1

Helianthus annuus [4] = experiment: Preemergence herbicidal activity (Example 67); details: pre; 800 g/ha; rated about 1-3 weeks after treatment
Procedure, shortened: as §1

Zea mays [5] = experiment: Preemergence herbicidal activity (Example 67); details: pre; 800 g/ha; rated about 1-3 weeks after treatment
Procedure, shortened: as §1

Chenopodium album [6] = experiment: Preemergence herbicidal activity (Example 67); details: pre; 800 g/ha; rated about 1-3 weeks after treatment
Procedure, shortened: as §1

Ipomoea hederacea [7] = experiment: Preemergence herbicidal activity (Example 67); details: pre; 800 g/ha; rated about 1-3 weeks after treatment
Procedure, shortened: as §1

Galium aparine [8] = experiment: Preemergence herbicidal activity (Example 67); details: pre; 800 g/ha; rated about 1-3 weeks after treatment
Procedure, shortened: as §1

Amaranthus retroflexus [9] = experiment: Preemergence herbicidal activity (Example 67); details: pre; 800 g/ha; rated about 1-3 weeks after treatment
Procedure, shortened: as §1

Alopecurus myosuroides [10] = experiment: Postemergence herbicidal activity (Example 67); details: pos; 800 g/ha; rated after 10-21 days
Procedure, shortened: (§2)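 Rate: 800g/ha, sprayed postemergence in 400 L/ha onto seedlings aged 3-6 weeks. Formulation was acetone/0.5% TRITON X-155 diluted in water. Readout: visual rating, 10-21 days after treatment.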

Setaria viridis [11] = experiment: Postemergence herbicidal activity (Example 67); details: pos; 800 g/ha; rated after 10-21 days
Procedure, shortened: as §2

Abutilon theophrasti [12] = experiment: Postemergence herbicidal activity (Example 67); details: pos; 800 g/ha; rated after 10-21 days
Procedure, shortened: as §2

Hordeum vulgare [13] = experiment: Postemergence herbicidal activity (Example 67); details: pos; 800 g/ha; rated after 10-21 days
Procedure, shortened: as §2

Veronica persica [14] = experiment: Postemergence herbicidal activity (Example 67); details: pos; 800 g/ha; rated after 10-21 days
Procedure, shortened: as §2

Triticum aestivum [15] = experiment: Postemergence herbicidal activity (Example 67); details: pos; 800 g/ha; rated after 10-21 days
Procedure, shortened: as §2

Helianthus annuus [16] = experiment: Postemergence herbicidal activity (Example 67); details: pos; 800 g/ha; rated after 10-21 days
Procedure, shortened: as §2

Zea mays [17] = experiment: Postemergence herbicidal activity (Example 67); details: pos; 800 g/ha; rated after 10-21 days
Procedure, shortened: as §2

Chenopodium album [18] = experiment: Postemergence herbicidal activity (Example 67); details: pos; 800 g/ha; rated after 10-21 days
Procedure, shortened: as §2

Ipomoea hederacea [19] = experiment: Postemergence herbicidal activity (Example 67); details: pos; 800 g/ha; rated after 10-21 days
Procedure, shortened: as §2

Galium aparine [20] = experiment: Postemergence herbicidal activity (Example 67); details: pos; 800 g/ha; rated after 10-21 days
Procedure, shortened: as §2

Amaranthus retroflexus [21] = experiment: Postemergence herbicidal activity (Example 67); details: pos; 800 g/ha; rated after 10-21 days
Procedure, shortened: as §2

Hordeum vulgare [22] = experiment: Preemergence herbicidal activity (Example 67); set-up: herbicide rating, HORVW: scale not given here; details: pre; 800 g/ha; rated about 1-3 weeks after treatment
Procedure, shortened: as §1

Triticum aestivum [23] = experiment: Preemergence herbicidal activity (Example 67); set-up: herbicide rating, TRZAW: scale not given here; details: pre; 800 g/ha; rated about 1-3 weeks after treatment
Procedure, shortened: as §1

Setaria viridis [24] = experiment: Preemergence herbicidal activity (Example 67); set-up: herbicide rating, SETVI: scale not given here; details: pre; 800 g/ha; rated about 1-3 weeks after treatment
Procedure, shortened: as §1

| Structure (SMILES) | herbicide rating, ALOMY (Alopecurus myosuroides [1]) | herbicide rating, ABUTH (Abutilon theophrasti [2]) | herbicide rating, VERPE (Veronica persica [3]) | herbicide rating, HELAN (Helianthus annuus [4]) | herbicide rating, ZEAMX (Zea mays [5]) | herbicide rating, CHEAL (Chenopodium album [6]) | herbicide rating, IPOHE (Ipomoea hederacea [7]) | herbicide rating, GALAP (Galium aparine [8]) | herbicide rating, AMARE (Amaranthus retroflexus [9]) | herbicide rating, ALOMY (Alopecurus myosuroides [10]) | herbicide rating, SETVI (Setaria viridis [11]) | herbicide rating, ABUTH (Abutilon theophrasti [12]) | herbicide rating, HORVW (Hordeum vulgare [13]) | herbicide rating, VERPE (Veronica persica [14]) | herbicide rating, TRZAW (Triticum aestivum [15]) | herbicide rating, HELAN (Helianthus annuus [16]) | herbicide rating, ZEAMX (Zea mays [17]) | herbicide rating, CHEAL (Chenopodium album [18]) | herbicide rating, IPOHE (Ipomoea hederacea [19]) | herbicide rating, GALAP (Galium aparine [20]) | also measured |
| --- | --- | --- | --- | --- | --- | --- | --- | --- | --- | --- | --- | --- | --- | --- | --- | --- | --- | --- | --- | --- | --- |
| C[C@H](NC(=O)c1nc(-c2ccc(Cl)cc2)ns1)c1ccccc1 [Example 27, (S)-3-(4-Chlorophenyl)-[1,2,4]thiadiazole-5-carboxylic acid, 1-(phenylethyl) amide] | 0 | 0 | 7 (80-90%) | 3 (16-29%) | 0 | 2 (6-15%) | 1 (1-5%) | 0 | 0 | 4 (30-44%) | 8 (91-99%) | 6 (65-79%) | 2 (6-15%) | 7 (80-90%) | 2 (6-15%) | 8 (91-99%) | 5 (45-64%) | 4 (30-44%) | 7 (80-90%) | 5 (45-64%) | herbicide rating, AMARE (Amaranthus retroflexus [21]): 5 (45-64%); herbicide rating, HORVW (Hordeum vulgare [22]): 0; herbicide rating, TRZAW (Triticum aestivum [23]): 0; herbicide rating, SETVI (Setaria viridis [24]): 0 |
| O=C(NCc1cccs1)c1nc(C=Cc2ccccc2)ns1 [Example 28] | 0 | 0 | 0 | 0 | 0 | 0 | 0 | 0 | 0 | 1 (1-5%) | 3 (16-29%) | 1 (1-5%) | 0 | 2 (6-15%) | 0 | 0 | 0 | 2 (6-15%) | 0 | 0 | herbicide rating, AMARE (Amaranthus retroflexus [21]): 0; herbicide rating, HORVW (Hordeum vulgare [22]): 0; herbicide rating, TRZAW (Triticum aestivum [23]): 0; herbicide rating, SETVI (Setaria viridis [24]): 0 |
| C[C@H](NC(=O)c1nc(C=Cc2ccccc2)ns1)c1ccccc1 [Example 30] | 0 | 2 (6-15%) | 0 | 0 | 0 | 0 | 0 | 0 | 0 | 1 (1-5%) | 3 (16-29%) | 3 (16-29%) | 0 | 0 | 2 (6-15%) | 2 (6-15%) | 0 | 4 (30-44%) | 4 (30-44%) | 4 (30-44%) | herbicide rating, AMARE (Amaranthus retroflexus [21]): 2 (6-15%); herbicide rating, HORVW (Hordeum vulgare [22]): 0; herbicide rating, TRZAW (Triticum aestivum [23]): 0; herbicide rating, SETVI (Setaria viridis [24]): 0 |
| CCCCc1nsc(C(=O)NCc2cccs2)n1 [Example 31] | 0 | 0 | 0 | 0 | 0 | 0 | 0 | 0 | 0 | 2 (6-15%) | 4 (30-44%) | 1 (1-5%) | 0 | 0 | 2 (6-15%) | 2 (6-15%) | 1 (1-5%) | 4 (30-44%) | 3 (16-29%) | 2 (6-15%) | herbicide rating, AMARE (Amaranthus retroflexus [21]): 0; herbicide rating, HORVW (Hordeum vulgare [22]): 0; herbicide rating, TRZAW (Triticum aestivum [23]): 0; herbicide rating, SETVI (Setaria viridis [24]): 0 |
